≈ marks a conversion by molar mass, not a printed value. Like-named read-outs stand apart in the source and are kept apart here.
What was measured:
Format in all cases: cell-based
[1] = system: Streptococcus pneumoniae 1095; details: microtiter broth dilution
Summary of the method: (§1)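 Antibacterial activity is expressed as the MIC from broth microdilution. Reading follows the NCCLS M100-S14 performance standards, and stocks are made in DMSO at 40 mg/ml.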

[2] = system: Streptococcus pneumoniae 1175; details: microtiter broth dilution
Summary of the method: as §1

[3] = system: Streptococcus pyogenes 1079; assay: MIC, microtiter broth dilution (NCCLS M100-S14), S. pyogenes 1079 (ermB)
Summary of the method: as §1

[4] = system: Streptococcus pneumoniae 1016; assay: MIC, microtiter broth dilution (NCCLS M100-S14), S. pneumoniae 1016 (susceptible)
Summary of the method: as §1

[5] = system: Haemophilus influenzae 1218; assay: MIC, microtiter broth dilution (NCCLS M100-S14), H. influenzae 1218 (susceptible)
Summary of the method: as §1

[6] = S. pneumoniae 1016 (susceptible)
[7] = H. influenzae 1218 (susceptible)

Structure (SMILES) | MIC S. pneumo. 1095 ([1]; Streptococcus pneumoniae 1095) [mg/L] | MIC S. pneumo. 1175 ([2]; Streptococcus pneumoniae 1175) [mg/L] | MIC S. pyogenes 1079 ([3]; Streptococcus pyogenes 1079) [mg/L] | MIC S. pneumo. 1016 ([4]; Streptococcus pneumoniae 1016) [mg/L] | MIC H. influenzae 1218 ([5]; Haemophilus influenzae 1218) [mg/L] | MIC S. pneumo. 1095 ([1]; S. pneumoniae 1095 (ermB)) [mg/L] | MIC S. pneumo. 1175 ([2]; S. pneumoniae 1175 (mefA)) [mg/L] | MIC S. pyogenes 1079 ([3]; S. pyogenes 1079 (ermB)) [mg/L] | MIC S. pneumo. 1016 [4, 6] [mg/L] | MIC H. influenzae 1218 [5, 7] [mg/L]
CCC(c1ccnc2ccccc12)N1CC(N2C(=O)OC3(C)C(CC)OC(=O)C(C)C(=O)C(C)C(OC4OC(C)CC(N(C)C)C4O)C(C)(OC)CC(C)C(=O)C(C)C23)C1 (mixture of isomers) [Example 1.61, 3-descladinosyl-11,12-dideoxy-6-O-methyl-3-oxo-12,11-(oxycarbonyl-(1-(1-(quinolin-4-yl)-propyl)-azetidin-3-yl)-imino)-erythromycin A] | <0.06 | 0.25 | 8 | <0.06 | 4 |  |  |  |  | 
CCC1OC(=O)C(C)C(=O)C(C)C(OC2OC(C)CC(N(C)C)C2O)C(C)(OC)CC(C)C(=O)C(C)C2N(CC3CN(Cc4ccn[nH]4)C3)C(=O)OC12C (stereo not shown) [4.09] | 32 (≈ 42 µM) | 0.5 (≈ 0.656 µM) | >64.00 | <0.06 | 0.12 (≈ 0.157 µM) |  |  |  |  | 
CCC1OC(=O)C(C)C(=O)C(C)C(OC2OC(C)CC(N(C)C)C2O)C(C)(OC)CC(C)C(=O)C(C)C2N(C3CN(S(=O)(=O)c4cccc(-c5cccnn5)c4)C3)C(=O)OC12C (stereo not shown) [Example 3.72, 3-descladinosyl-11,12-dideoxy-4-O-methyl-3-oxo-12,11-(oxycarbonyl-(1-(3-(pyridazin-3-yl)benzenesulfonyl)-azetidin-3-yl)-imino)erythromycin A] | <0.06 | <0.06 | 1 (≈ 1.13 µM) | <0.06 | 1 (≈ 1.13 µM) |  |  |  |  | 
CCC1OC(=O)C(C)C(=O)C(C)C(OC2OC(C)CC(N(C)C)C2O)C(C)(OC)CC(C)C(=O)C(C)C2N(C3CN(S(=O)(=O)c4cnn(-c5ccccc5)c4C)C3)C(=O)OC12C (stereo not shown) [Example 3.12, 5-methyl-1-phenyl-1H-pyrazole-4-sulfonyl] | 1 (≈ 1.13 µM) | <0.06 | 64 (≈ 72.1 µM) | <0.06 | 4 (≈ 4.5 µM) |  |  |  |  | 
CC[C@H]1OC(=O)[C@H](C)C(=O)[C@H](C)[C@@H](O[C@@H]2O[C@H](C)C[C@H](N(C)C)[C@H]2O)[C@](C)(OC)C[C@@H](C)C(=O)[C@H](C)[C@H]2N(CC3(O)CN(Cc4c[nH]c(=O)[nH]c4=O)C3)C(=O)O[C@]12C [7.09] |  |  |  |  |  | 64 (≈ 77.9 µM) | 16 (≈ 19.5 µM) | >64.00 | 0.5 (≈ 0.608 µM) | 16 (≈ 19.5 µM)
CCC1OC(=O)C(C)C(=O)C(C)C(OC2OC(C)CC(N(C)C)C2O)C(C)(OC)CC(C)C(=O)C(C)C2N(C3CN(S(=O)(=O)c4ccc(C#N)nc4)C3)C(=O)OC12C (stereo not shown) [Example 3.48, 6-cyanopyridine-3-sulfonyl] | 1 (≈ 1.2 µM) | <0.06 | >64.00 | <0.06 | 0.5 (≈ 0.6 µM) |  |  |  |  | 
CC[C@H]1OC(=O)[C@H](C)[C@@H](OC(=O)N2CCCC2)[C@H](C)[C@@H](O[C@@H]2O[C@H](C)C[C@H](N(C)C)[C@H]2O)[C@](C)(OC)C[C@@H](C)C(=O)[C@H](C)[C@H]2N(CC3CN(Cc4nc5ccccc5[nH]4)C3)C(=O)O[C@]12C [Example 5.11, 2-R^2: (1H-benzo[d]imidazol-2-yl)methyl; R^#: pyrrolidin-1-yl] | 1 (≈ 1.1 µM) | <0.06 | 32 (≈ 35.1 µM) | <0.06 | 1 (≈ 1.1 µM) |  |  |  |  | 
CCC1OC(=O)C(C)C(=O)C(C)C(OC2OC(C)CC(N(C)C)C2O)C(C)(OC)CC(C)C(=O)C(C)C2N(C3CN(C(=O)c4cncc5ccccc45)C3)C(=O)OC12C (stereo not shown) [Example 2.01] | 32 (≈ 38.9 µM) | 0.25 (≈ 0.304 µM) | >64.00 | <0.06 | 4 (≈ 4.86 µM) |  |  |  |  | 
CCC1OC(=O)C(C)C(=O)C(C)C(OC2OC(C)CC(N(C)C)C2O)C(C)(OC)CC(C)C(=O)C(C)C2N(CC3CCN(Cc4ccc(OC)nc4)CC3)C(=O)OC12C (stereo not shown) [15.04] |  |  |  |  |  | >64.00 | 0.5 (≈ 0.602 µM) | >64.00 | <0.06 | 16 (≈ 19.3 µM)
CCC1OC(=O)C(C)C(=O)C(C)C(OC2OC(C)CC(N(C)C)C2O)C(C)(OC)CC(C)C(=O)C(C)C2N(C3CN(C(=O)c4cccc5[nH]c(C)nc45)C3)C(=O)OC12C (stereo not shown) [Example 2.02] | >64.00 | 2 (≈ 2.42 µM) | >64.00 | <0.06 | 2 (≈ 2.42 µM) |  |  |  |  | 
CC[C@H]1OC(=O)[C@H](C)C(=O)[C@H](C)[C@@H](O[C@@H]2O[C@H](C)C[C@H](N(C)C)[C@H]2O)[C@](C)(OC)C[C@@H](C)C(=O)[C@H](C)[C@H]2N(CC3(O)CN(C(=O)c4cccc5ccncc45)C3)C(=O)O[C@]12C [7.24] |  |  |  |  |  | 2 (≈ 2.34 µM) | 1 (≈ 1.17 µM) | >64.00 | <0.06 | 2 (≈ 2.34 µM)
CCC1OC(=O)C(C)C(=O)C(C)C(OC2OC(C)CC(N(C)C)C2O)C(C)(OC)CC(C)C(=O)C(C)C2N(C3CN(S(=O)(=O)c4ccc5c(c4)CCC5)C3)C(=O)OC12C (stereo not shown) [Example 3.83] | <0.06 | <0.06 | 32 (≈ 37.7 µM) | <0.06 | 1 (≈ 1.18 µM) |  |  |  |  | 
CCC1OC(=O)C(C)C(=O)C(C)C(OC2OC(C)CC(N(C)C)C2O)C(C)(OC)CC(C)C(=O)C(C)C2N(C3CN(S(=O)(=O)c4ccc(-c5n[nH]c(=O)[nH]c5=O)cc4)C3)C(=O)OC12C (stereo not shown) [Example 3.20, 3-descladinosyl-11,12-dideoxy-6-O-methyl-3-oxo-12,11-(oxycarbonyl-(1-(4-(2,3,4,5-tetrahydro-3,5-dioxo-1,2,4-triazin-6-yl)benzenesulfonyl)-azetidin-3-yl)-imino)-erythromycin A] | <0.06 | 2 (≈ 2.18 µM) | 8 (≈ 8.7 µM) | <0.06 | 0.5 (≈ 0.544 µM) |  |  |  |  | 
CCC1OC(=O)C(C)C(=O)C(C)C(OC2OC(C)CC(N(C)C)C2O)C(C)(OC)CC(C)C(=O)C(C)C2N(C3CN(S(=O)(=O)c4ccc(Oc5ccncc5)cc4)C3)C(=O)OC12C (stereo not shown) [Example 3.26] | <0.06 | 8 (≈ 8.88 µM) | 64 (≈ 71 µM) | <0.06 | 4 (≈ 4.44 µM) |  |  |  |  | 
CCC1OC(=O)C(C)C(=O)C(C)C(OC2OC(C)CC(N(C)C)C2O)C(C)(OC)CC(C)C(=O)C(C)C2N(C3CN(S(=O)(=O)c4ccc(F)c(-c5cnco5)c4)C3)C(=O)OC12C (stereo not shown) [Example 3.88, 3-descladinosyl-11,12-dideoxy-6-O-methyl-3-oxo-12,11-(oxycarbonyl-(1-(4-fluoro-3-(oxazol-5-yl)benzenesulfonyl)-azetidin-3-yl)-imino)-erythromycin A] | <0.06 | <0.06 | 8 (≈ 8.96 µM) | <0.06 | 2 (≈ 2.24 µM) |  |  |  |  | 
CCC1OC(=O)C(C)C(=O)C(C)C(OC2OC(C)CC(N(C)C)C2O)C(C)(OC)CC(C)C(=O)C(C)C2N(CC3CCN(Cc4cccc(OC)n4)C3)C(=O)OC12C (stereo not shown) [11.08] |  |  |  |  |  | <0.06 | 0.25 (≈ 0.306 µM) | >64.00 | <0.06 | 0.5 (≈ 0.612 µM)
CC[C@H]1OC(=O)[C@H](C)C(=O)[C@H](C)[C@@H](O[C@@H]2O[C@H](C)C[C@H](N(C)C)[C@H]2O)[C@](C)(OC)C[C@@H](C)C(=O)[C@H](C)[C@H]2N(CC3(O)CN(C(=O)c4ccc(-n5cccn5)nc4)C3)C(=O)O[C@]12C.O=CO [7.31] |  |  |  |  |  | 4 | 0.12 | >64.00 | <0.06 | 8
CCC1OC(=O)C(C)C(=O)C(C)C(OC2OC(C)CC(N(C)C)C2O)C(C)(OC)CC(C)C(=O)C(C)C2N(C3CN(C(c4ccccc4)c4cccnc4)C3)C(=O)OC12C (single isomer, unassigned) [Example 1.66, phenyl-(pyridin-3-yl)methyl (*)] | 0.5 (≈ 0.599 µM) | <0.06 | 64 (≈ 76.6 µM) | <0.06 | 2 (≈ 2.4 µM) |  |  |  |  | 
CCC1OC(=O)C(C)C(=O)C(C)C(OC2OC(C)CC(N(C)C)C2O)C(C)(OC)CC(C)C(=O)C(C)C2N(CC3CCN(Cc4cnn(-c5ccccn5)c4)C3)C(=O)OC12C (stereo not shown) [11.14] |  |  |  |  |  | 0.25 (≈ 0.293 µM) | 0.25 (≈ 0.293 µM) | 32 (≈ 37.5 µM) | <0.06 | 2 (≈ 2.34 µM)
CCC1OC(=O)C(C)C(=O)C(C)C(OC2OC(C)CC(N(C)C)C2O)C(C)(OC)CC(C)C(=O)C(C)C2N(C3CN(S(=O)(=O)c4ccc5cn[nH]c5c4)C3)C(=O)OC12C (stereo not shown) [Example 3.85, 3-descladinosyl-11,12-dideoxy-6-O-methyl-3-oxo-12,11-(oxycarbonyl-(1-(1H-indazole-6-sulfonyl)-azetidin-3-yl)-imino)-erythromycin A] | <0.06 | <0.06 | 1 (≈ 1.18 µM) | <0.06 | 0.25 (≈ 0.295 µM) |  |  |  |  | 
